# In US20230287044A1, “NOVEL ANTIBACTERIAL PEPTIDE AND USE THEREOF” (priority 2020, published 2023):
# Where two headings read alike, the source gives them in different places. Square brackets hold non-standard residues; d marks the D form. Ends that are not written are not given here. Peptide text beside a SMILES is read from it. * marks the point of attachment. Decanoyl = CCCCCCCCCC(=O)*
# What was measured:
# [1] = test system: MRPA (P. aeruginosa) CCARM 2180; type: cell-based, Pseudomonas aeruginosa
# Description: (§1) The minimum growth inhibitory concentrations of the antibacterial peptides of the present invention weremeasured, and the results are shown in Table 3 below.
# (§2) Specifically, the strains were grown in CAMHB until the midlog phase, and then diluted with PBS buffer to 1× 10^6 cfu/ml to prepare the bacterial solution, and the antibacterial peptide prepared in Example 1above was diluted with CAMHB to 80 µM, 40 µM, 20 µM, 10 µM, 5 µM, 2.5 µM, 1.25 µM and 0.63 µM, and then the bacterial solution was treated with the same volume.
# (§3) The results are the average value of three independent experiments.
# [2] = test system: VRE (E. faecalis) ATCC 51575; type: cell-based, Enterococcus faecalis
# Description: as §1, §2, §3
# [3] = test system: MRSA (S. aureus) KCCM 40510; type: cell-based, Staphylococcus aureus; conditions: KCCM 40510, 18 h
# Description: as §1, §2, §3
# [4] = test system: MRAB (A. baumannii) ATCC BAA 1605; type: cell-based, Acinetobacter baumannii
# Description: as §1, §2, §3
# [5] = CAMHB, 37° C., 18 hours, average of three experiments
Compound,"MIC MRPA (P. aeruginosa) CCARM 2180 ([1]; CCARM 2180, 18 h)","MIC VRE (E. faecalis) ATCC 51575 ([2]; ATCC 51575, 18 h)",MIC MRSA (S. aureus) KCCM 40510 [3],"MIC MRAB (A. baumannii) ATCC BAA 1605 ([4]; ATCC BAA 1605, 18 h)","MIC MRPA (P. aeruginosa) CCARM 2180 [1, 5]","MIC VRE (E. faecalis) ATCC 51575 [2, 5]","MIC MRAB (A. baumannii) ATCC BAA 1605 [4, 5]"
"CC[C@@H](C)[C@@H](NC(=O)[C@@H](Cc1c[nH]c2ccccc12)NC(=O)[C@@H](CCCNC(=N)N)NC(=O)[C@@H](CCCNC(=N)N)NC(=O)[C@H](N)CCCNC(=N)N)C(=O)N[C@H](Cc1c[nH]c2ccccc12)C(=O)N[C@H](C)C(=O)N[C@H](C)C(=O)N[C@H](Cc1c[nH]c2ccccc12)C(=O)N[C@H](CCCCN)C(N)=O [KSH74, rrrwiwaawk] (H-[dR][dR][dR][dW][dI][dW][dA][dA][dW][dK]-NH2; N-terminus assumed)",>10 µM,>10 µM,>10 µM,2.5 µM,–,–,–
"CC(C)[C@@H](NC(=O)[C@@H](Cc1c[nH]c2ccccc12)NC(=O)[C@@H](CCCNC(=N)N)NC(=O)[C@@H](CCCNC(=N)N)NC(=O)[C@H](N)CCCNC(=N)N)C(=O)N[C@H](Cc1c[nH]c2ccccc12)C(=O)N[C@@H](C(=O)N[C@@H](C(=O)N[C@H](Cc1c[nH]c2ccccc12)C(=O)N[C@H](CCCCN)C(N)=O)C(C)C)C(C)C [KSH57, rrrwvwvvwk] (H-[dR][dR][dR][dW][dV][dW][dV][dV][dW][dK]-NH2; N-terminus assumed)",20 µM,20 µM,20 µM,5 µM,–,–,–
WLLWVLWRKKR-NH2 [LSH3],20 µM,2.5 µM,2.5 µM,1.25 µM,–,–,–
"CC[C@@H](C)[C@@H](NC(=O)[C@H](N)Cc1c[nH]c2ccccc12)C(=O)N[C@@H](C(=O)N[C@H](Cc1c[nH]c2ccccc12)C(=O)N[C@@H](C(=O)N[C@H](Cc1c[nH]c2ccccc12)C(=O)N[C@H](CCCNC(=N)N)C(=O)N[C@H](CCCNC(=N)N)C(=O)N[C@H](CCCNC(=N)N)C(N)=O)[C@H](C)CC)[C@H](C)CC [KSH61, wiiwiwrrr] (H-[dW][dI][dI][dW][dI][dW][dR][dR][dR]-NH2; N-terminus assumed)",–,0.63 µM,–,–,–,–,–
WLWVWVRKKR-NH2 [LSH5],40 µM,10 µM,10 µM,2.5 µM,–,–,–
"CCCCCCCCCC(=O)NCCCC[C@@H](N)C(=O)N[C@H](Cc1c[nH]c2ccccc12)C(=O)N[C@H](CC(C)C)C(=O)N[C@H](CC(C)C)C(=O)N[C@H](Cc1c[nH]c2ccccc12)C(=O)N[C@@H](C(=O)NCC(=O)N[C@H](CC(C)C)C(=O)N[C@H](CCCNC(=N)N)C(=O)N[C@H](CCCCN)C(=O)N[C@H](CCCCN)C(=O)N[C@H](CCCNC(=N)N)C(N)=O)[C@H](C)CC [KSH10, kwllwiglrkkr] (H-[dK](Decanoyl)[dW][dL][dL][dW][dI]G[dL][dR][dK][dK][dR]-NH2; N-terminus assumed)",>20 µM,5 µM,5 µM,>20 µM,–,–,–
"CC[C@@H](C)[C@@H](NC(=O)[C@@H](Cc1c[nH]c2ccccc12)NC(=O)[C@@H](CC(C)C)NC(=O)[C@H](N)Cc1c[nH]c2ccccc12)C(=O)N[C@H](Cc1c[nH]c2ccccc12)C(=O)N[C@H](CCCNC(=N)N)C(=O)N[C@H](CCCNC(=N)N)C(=O)N[C@H](CCCNC(=N)N)C(N)=O [KSH41, wlwiwrrr] (H-[dW][dL][dW][dI][dW][dR][dR][dR]-NH2; N-terminus assumed)",–,–,2.5 µM,–,–,–,–
WLLWVYVRKKR-NH2 [XSH2],20 µM,5 µM,25 µM,1.25 µM,–,–,–
"CC[C@@H](C)[C@@H](NC(=O)[C@@H](Cc1c[nH]c2ccccc12)NC(=O)[C@@H](CC(C)C)NC(=O)[C@H](N)CC(C)C)C(=O)NCC(=O)N[C@H](CC(C)C)C(=O)N[C@H](CCCNC(=N)N)C(=O)N[C@H](CCCCN)C(=O)N[C@H](CCCCN)C(=O)N[C@H](CCCNC(=N)N)C(N)=O [KSH13, llwiglrkkr] (H-[dL][dL][dW][dI]G[dL][dR][dK][dK][dR]-NH2; N-terminus assumed)",>40 µM,40 µM,40 µM,–,–,–,–
"CC[C@@H](C)[C@@H](NC(=O)[C@@H](Cc1c[nH]c2ccccc12)NC(=O)[C@@H](C)NC(=O)[C@@H](C)NC(=O)[C@H](N)Cc1c[nH]c2ccccc12)C(=O)NCC(=O)N[C@H](CC(C)C)C(=O)N[C@H](CCCNC(=N)N)C(=O)N[C@H](CCCCN)C(=O)N[C@H](CCCCN)C(=O)N[C@H](CCCNC(=N)N)C(N)=O [KSH20, waawiglrkkr] (H-[dW][dA][dA][dW][dI]G[dL][dR][dK][dK][dR]-NH2; N-terminus assumed)",>40 µM,>40 µM,>40 µM,–,–,–,–
"CC[C@@H](C)[C@@H](NC(=O)[C@@H](Cc1c[nH]c2ccccc12)NC(=O)[C@@H](CCCNC(=N)N)NC(=O)[C@@H](CCCNC(=N)N)NC(=O)[C@H](N)CCCNC(=N)N)C(=O)N[C@H](Cc1c[nH]c2ccccc12)C(=O)N[C@@H](C(=O)N[C@@H](C(=O)N[C@H](Cc1c[nH]c2ccccc12)C(N)=O)[C@H](C)CC)[C@H](C)CC [KSH60, rrrwiwiiw] (H-[dR][dR][dR][dW][dI][dW][dI][dI][dW]-NH2; N-terminus assumed)",–,0.63 µM,–,–,–,–,–
"CC(C)C[C@@H](NC(=O)[C@H](N)Cc1c[nH]c2ccccc12)C(=O)N[C@@H](C(=O)N[C@H](Cc1c[nH]c2ccccc12)C(=O)N[C@H](CCCCN)C(=O)N[C@H](Cc1c[nH]c2ccccc12)C(=O)N[C@H](CCCNC(=N)N)C(=O)N[C@H](CCCNC(=N)N)C(=O)N[C@H](CCCNC(=N)N)C(N)=O)C(C)C [KSH37, wlvwkwrrr] (H-[dW][dL][dV][dW][dK][dW][dR][dR][dR]-NH2; N-terminus assumed)",40 µM,5 µM,–,–,–,–,–
"CC[C@H](C)[C@H](NC(=O)CN)C(=O)NCC(=O)N[C@@H](C)C(=O)N[C@H](C(=O)N[C@@H](CC(C)C)C(=O)N[C@@H](CCCCN)C(=O)N[C@H](C(=O)N[C@@H](CC(C)C)C(=O)N[C@H](C(=O)N[C@H](C(=O)NCC(=O)N[C@@H](CC(C)C)C(=O)N1CCC[C@H]1C(=O)N[C@@H](C)C(=O)N[C@@H](CC(C)C)C(=O)N[C@H](C(=O)N[C@@H](CO)C(=O)N[C@@H](Cc1c[nH]c2ccccc12)C(=O)N[C@H](C(=O)N[C@@H](CCCCN)C(=O)N[C@@H](CCCNC(=N)N)C(=O)N[C@@H](CCCCN)C(=O)N[C@@H](CCCNC(=N)N)C(=O)N[C@@H](CCC(N)=O)C(=O)N[C@@H](CCC(N)=O)C(N)=O)[C@@H](C)CC)[C@@H](C)CC)[C@@H](C)O)[C@@H](C)O)C(C)C)C(C)C [Melittin, reference compound]",–,–,–,–,>40 µM,1.25 µM,1.25 µM
"CC[C@@H](C)[C@@H](NC(=O)[C@@H](Cc1c[nH]c2ccccc12)NC(=O)[C@@H](CC(C)C)NC(=O)[C@H](N)CC(C)C)C(=O)N[C@H](C)C(=O)N[C@H](CC(C)C)C(=O)N[C@H](CCCCN)C(=O)N[C@H](CCCCN)C(=O)N[C@H](CCCCN)C(=O)N[C@H](CCCCN)C(N)=O [KSH12, llwialkkkk] (H-[dL][dL][dW][dI][dA][dL][dK][dK][dK][dK]-NH2; N-terminus assumed)",>40 µM,–,–,–,–,–,–
"CC(C)C[C@@H](NC(=O)[C@H](N)Cc1c[nH]c2ccccc12)C(=O)N[C@@H](C(=O)N[C@H](Cc1c[nH]c2ccccc12)C(=O)N[C@H](CO)C(=O)N[C@H](Cc1c[nH]c2ccccc12)C(=O)N[C@H](CCCNC(=N)N)C(=O)N[C@H](CCCNC(=N)N)C(=O)N[C@H](CCCNC(=N)N)C(N)=O)C(C)C [KSH39, wlvwswrrr] (H-[dW][dL][dV][dW][dS][dW][dR][dR][dR]-NH2; N-terminus assumed)",>40 µM,–,–,–,–,–,–
"CC[C@@H](C)[C@@H](NC(=O)[C@@H](Cc1c[nH]c2ccccc12)NC(=O)[C@@H](CC(C)C)NC(=O)[C@@H](CC(C)C)NC(=O)[C@H](N)Cc1c[nH]c2ccccc12)C(=O)NCC(=O)N[C@H](CC(C)C)C(=O)N[C@H](CCCNC(=N)N)C(=O)N[C@H](CCCCN)C(=O)N[C@H](CCCCN)C(N)=O [KSH8, wllwiglrkk] (H-[dW][dL][dL][dW][dI]G[dL][dR][dK][dK]-NH2; N-terminus assumed)",40 µM,–,–,–,–,–,–
